Laboratory results taken from ChEMBL document CHEMBL3351986, “Probing linker design in citric acid-ciprofloxacin conjugates” (2014).
Values after ≈ are worked out from the molar mass of the structure shown. Active and inactive are the calls of the source. No cut-off for these calls is given here.

Columns and labels:
Escherichia coli [1] = test: Ratio of compound MIC to ciprofloxacin MIC for Escherichia coli NCTC 10418 after 18 hrs by micro dilution method; type: functional
Burkholderia cepacia [2] = test: Antimicrobial activity against Burkholderia cepacia BIG 121 after 18 hrs by micro dilution method; type: functional; conditions: BIG 121, 18 h
[3] = test system: Staphylococcus epidermidis; test: Ratio of compound MIC to ciprofloxacin MIC for Staphylococcus epidermidis NCTC 2749 after 18 hrs by micro dilution method; type: functional
Staphylococcus aureus [4] = test: Antimicrobial activity against Staphylococcus aureus BIG 52 after 18 hrs by micro dilution method; type: functional; conditions: BIG 52, 18 h
Pseudomonas aeruginosa [5] = test: Antimicrobial activity against Pseudomonas aeruginosa BIG 63 after 18 hrs by micro dilution method; type: functional; conditions: BIG 63, 18 h
[6] = test system: Stenotrophomonas maltophilia; test: Antimicrobial activity against Stenotrophomonas maltophilia N1119 after 18 hrs by micro dilution method; type: functional; conditions: N1119, 18 h
Serratia marcescens [7] = test: Antimicrobial activity against Serratia marcescens BIG 11 NCTC 1377 after 18 hrs by micro dilution method; type: functional; conditions: BIG 11 NCTC 1377, 18 h
Pseudomonas aeruginosa [8] = test: Ratio of compound MIC to ciprofloxacin MIC for Pseudomonas aeruginosa BIG 63 after 18 hrs by micro dilution method; type: functional
Burkholderia cepacia [9] = test: Antimicrobial activity against Burkholderia cepacia BIG 9 NCTC 10744 after 18 hrs by micro dilution method; type: functional; conditions: BIG 9 NCTC 10744, 18 h
[10] = Inhibition of DNA gyrase (unknown origin) assessed as reduction in supercoiled form of DNA at 20 uM using ethidium bromide staining by gel electrophoresis
Burkholderia cepacia [11] = test: Antimicrobial activity against Burkholderia cepacia BIG 120 after 18 hrs by micro dilution method; type: functional; conditions: BIG 120, 18 h
Burkholderia cepacia [12] = test: Ratio of compound MIC to ciprofloxacin MIC for Burkholderia cepacia BIG 9 NCTC 10744 after 18 hrs by micro dilution method; type: functional
Staphylococcus aureus [13] = test: Antimicrobial activity against Staphylococcus aureus HG-1 after 18 hrs by micro dilution method; type: functional; conditions: HG-1, 18 h
Staphylococcus aureus [14] = test: Antimicrobial activity against Staphylococcus aureus NCTC 13142 after 18 hrs by micro dilution method; type: functional; conditions: NCTC 13142, 18 h
[15] = test system: Staphylococcus haemolyticus; test: Antimicrobial activity against Staphylococcus haemolyticus NCTC 11042 after 18 hrs by micro dilution method; type: functional; conditions: NCTC 11042, 18 h
Burkholderia cepacia [16] = test: Antimicrobial activity against Burkholderia cepacia BIG 118 after 18 hrs by micro dilution method; type: functional; conditions: BIG 118, 18 h
Pseudomonas aeruginosa [17] = test: Antimicrobial activity against Pseudomonas aeruginosa BIG 37 clinical isolate after 18 hrs by micro dilution method; type: functional; conditions: BIG 37, 18 h
Pseudomonas aeruginosa [18] = test: Ratio of compound MIC to ciprofloxacin MIC for Pseudomonas aeruginosa environmental isolate after 18 hrs by micro dilution method; type: functional
Staphylococcus aureus [19] = test: Antimicrobial activity against Staphylococcus aureus (Oxford) NCTC 6571 after 18 hrs by micro dilution method; type: functional; conditions: (Oxford) NCTC 6571, 18 h
[20] = test system: Stenotrophomonas maltophilia; test: Antimicrobial activity against Stenotrophomonas maltophilia N1124 after 18 hrs by micro dilution method; type: functional; conditions: N1124, 18 h
[21] = test system: Staphylococcus epidermidis; test: Antimicrobial activity against Staphylococcus epidermidis NCTC 11047 after 18 hrs by micro dilution method; type: functional; conditions: NCTC 11047, 18 h
Serratia marcescens [22] = test: Ratio of compound MIC to ciprofloxacin MIC for Serratia marcescens BIG 11 NCTC 1377 after 18 hrs by micro dilution method; type: functional
[23] = test system: Staphylococcus epidermidis; test: Antimicrobial activity against Staphylococcus epidermidis NCTC 2749 after 18 hrs by micro dilution method; type: functional; conditions: NCTC 2749, 18 h
Pseudomonas aeruginosa [24] = test: Antimicrobial activity against Pseudomonas aeruginosa environmental isolate BIG 39 after 18 hrs by micro dilution method; type: functional; conditions: BIG 39, 18 h
Escherichia coli [25] = test: Antimicrobial activity against Escherichia coli NCTC 10418 after 18 hrs by micro dilution method; type: functional; conditions: NCTC 10418, 18 h
Burkholderia cepacia [26] = test: Antimicrobial activity against Burkholderia cepacia BIG 119 after 18 hrs by micro dilution method; type: functional; conditions: BIG 119, 18 h
[27] = test system: Stenotrophomonas maltophilia; test: Antimicrobial activity against Stenotrophomonas maltophilia N1127 after 18 hrs by micro dilution method; type: functional; conditions: N1127, 18 h
Pseudomonas aeruginosa [28] = test: Ratio of compound MIC to ciprofloxacin MIC for Pseudomonas aeruginosa NCTC 10662 after 18 hrs by micro dilution method; type: functional
Burkholderia cepacia [29] = test: Antimicrobial activity against Burkholderia cepacia BIG 117 after 18 hrs by micro dilution method; type: functional; conditions: BIG 117, 18 h
Pseudomonas aeruginosa [30] = test: Antimicrobial activity against Pseudomonas aeruginosa NCTC 10662 after 18 hrs by micro dilution method; type: functional; conditions: NCTC 10662, 18 h
Escherichia coli [31] = test: Antimicrobial activity against Escherichia coli BIG 0046 after 18 hrs by micro dilution method; type: functional; conditions: BIG 0046, 18 h
Staphylococcus aureus [32] = test: Antimicrobial activity against Staphylococcus aureus NCTC 13143 after 18 hrs by micro dilution method; type: functional; conditions: NCTC 13143, 18 h
Pseudomonas aeruginosa [33] = test: Ratio of compound MIC to ciprofloxacin MIC for Pseudomonas aeruginosa BIG 37 clinical isolate after 18 hrs by micro dilution method; type: functional
[34] = test system: Staphylococcus haemolyticus; test: Ratio of compound MIC to ciprofloxacin MIC for Staphylococcus haemolyticus NCTC 11042 after 18 hrs by micro dilution method; type: functional
[35] = test system: Stenotrophomonas maltophilia; test: Ratio of compound MIC to ciprofloxacin MIC for Stenotrophomonas maltophilia N1119 after 18 hrs by micro dilution method; type: functional
Staphylococcus aureus [36] = test: Ratio of compound MIC to ciprofloxacin MIC for Staphylococcus aureus (Oxford) NCTC 6571 after 18 hrs by micro dilution method; type: functional
[37] = test system: Stenotrophomonas maltophilia; test: Ratio of compound MIC to ciprofloxacin MIC for Stenotrophomonas maltophilia N1127 after 18 hrs by micro dilution method; type: functional
Burkholderia cepacia [38] = test: Ratio of compound MIC to ciprofloxacin MIC for Burkholderia cepacia BIG 120 after 18 hrs by micro dilution method; type: functional
Staphylococcus aureus [39] = test: Ratio of compound MIC to ciprofloxacin MIC for Staphylococcus aureus BIG 52 after 18 hrs by micro dilution method; type: functional
[40] = test system: Staphylococcus epidermidis; test: Ratio of compound MIC to ciprofloxacin MIC for Staphylococcus epidermidis NCTC 11047 after 18 hrs by micro dilution method; type: functional
Staphylococcus aureus [41] = test: Ratio of compound MIC to ciprofloxacin MIC for Staphylococcus aureus NCTC 13142 after 18 hrs by micro dilution method; type: functional
Burkholderia cepacia [42] = test: Ratio of compound MIC to ciprofloxacin MIC for Burkholderia cepacia BIG 118 after 18 hrs by micro dilution method; type: functional
Burkholderia cepacia [43] = test: Ratio of compound MIC to ciprofloxacin MIC for Burkholderia cepacia BIG 117 after 18 hrs by micro dilution method; type: functional

O=C(O)CC(O)(CC(=O)NCCCCC(=O)N1CCN(c2cc3c(cc2F)c(=O)c(C(=O)O)cn3C2CC2)CC1)C(=O)O (racemic)
Ratio (Escherichia coli [1]): 8.8
MIC (Burkholderia cepacia [2]): > 36 µg/mL
Ratio [3]: 70
MIC (Staphylococcus aureus [4]): > 36 µg/mL
MIC (Pseudomonas aeruginosa [5]): 16 µg/mL (≈ 26.5 µM)
MIC [6]: > 36 µg/mL
MIC (Serratia marcescens [7]): 4 µg/mL (≈ 6.62 µM)
Ratio (Pseudomonas aeruginosa [8]): 35
MIC (Burkholderia cepacia [9]): 32 µg/mL (≈ 52.9 µM)
inhibition [10]: Active
MIC (Burkholderia cepacia [11]): > 36 µg/mL
Ratio (Burkholderia cepacia [12]): 35
MIC (Staphylococcus aureus [13]): > 36 µg/mL
MIC (Staphylococcus aureus [14]): > 36 µg/mL
MIC [15]: > 36 µg/mL
MIC (Burkholderia cepacia [16]): > 36 µg/mL
MIC (Pseudomonas aeruginosa [17]): > 36 µg/mL
Ratio (Pseudomonas aeruginosa [18]): 35
MIC (Staphylococcus aureus [19]): > 36 µg/mL
MIC [20]: > 36 µg/mL
MIC [21]: > 36 µg/mL
Ratio (Serratia marcescens [22]): 36.5
MIC [23]: 32 µg/mL (≈ 52.9 µM)
MIC (Pseudomonas aeruginosa [24]): 16 µg/mL (≈ 26.5 µM)
MIC (Escherichia coli [25]): 1 µg/mL (≈ 1.65 µM)
MIC (Burkholderia cepacia [26]): > 36 µg/mL
MIC [27]: > 36 µg/mL
Ratio (Pseudomonas aeruginosa [28]): 35
MIC (Burkholderia cepacia [29]): > 36 µg/mL
MIC (Pseudomonas aeruginosa [30]): 16 µg/mL (≈ 26.5 µM)
MIC (Escherichia coli [31]): > 36 µg/mL
MIC (Staphylococcus aureus [32]): > 36 µg/mL

O=C(O)CC(O)(CC(=O)N1CCN(c2cc3c(cc2F)c(=O)c(C(=O)O)cn3C2CC2)CC1)C(=O)O (stereo not given)
Ratio (Escherichia coli [1]): 2.8
Ratio (Pseudomonas aeruginosa [33]): 5.2
Ratio [34]: 83.8
MIC (Burkholderia cepacia [2]): > 36 µg/mL
Ratio [3]: 20.9
Ratio [35]: 20.1
MIC (Staphylococcus aureus [4]): 16 µg/mL (≈ 31.7 µM)
MIC (Pseudomonas aeruginosa [5]): 4 µg/mL (≈ 7.91 µM)
MIC [6]: 32 µg/mL (≈ 63.3 µM)
Ratio (Staphylococcus aureus [36]): 41.8
Ratio [37]: 10.5
MIC (Serratia marcescens [7]): 1 µg/mL (≈ 1.98 µM)
Ratio (Burkholderia cepacia [38]): 5.2
Ratio (Pseudomonas aeruginosa [8]): 10.5
MIC (Burkholderia cepacia [9]): 16 µg/mL (≈ 31.7 µM)
Ratio (Staphylococcus aureus [39]): 20.9
Ratio [40]: 83.8
inhibition [10]: Active
MIC (Burkholderia cepacia [11]): 16 µg/mL (≈ 31.7 µM)
Ratio (Burkholderia cepacia [12]): 20.9
Ratio (Staphylococcus aureus [41]): 10.5
MIC (Staphylococcus aureus [13]): > 36 µg/mL
MIC (Staphylococcus aureus [14]): 8 µg/mL (≈ 15.8 µM)
MIC [15]: 16 µg/mL (≈ 31.7 µM)
MIC (Burkholderia cepacia [16]): 16 µg/mL (≈ 31.7 µM)
Ratio (Burkholderia cepacia [42]): 41.8
MIC (Pseudomonas aeruginosa [17]): 16 µg/mL (≈ 31.7 µM)
Ratio (Pseudomonas aeruginosa [18]): 10.5
MIC (Staphylococcus aureus [19]): 16 µg/mL (≈ 31.7 µM)
MIC [20]: > 36 µg/mL
MIC [21]: 16 µg/mL (≈ 31.7 µM)
Ratio (Serratia marcescens [22]): 11
MIC [23]: 8 µg/mL (≈ 15.8 µM)
MIC (Pseudomonas aeruginosa [24]): 4 µg/mL (≈ 7.91 µM)
MIC (Escherichia coli [25]): 0.25 µg/mL (≈ 0.495 µM)
MIC (Burkholderia cepacia [26]): > 36 µg/mL
MIC [27]: 32 µg/mL (≈ 63.3 µM)
Ratio (Pseudomonas aeruginosa [28]): 10.5
Ratio (Burkholderia cepacia [43]): 10.5
MIC (Burkholderia cepacia [29]): 16 µg/mL (≈ 31.7 µM)
MIC (Pseudomonas aeruginosa [30]): 4 µg/mL (≈ 7.91 µM)
MIC (Escherichia coli [31]): > 36 µg/mL
MIC (Staphylococcus aureus [32]): > 36 µg/mL
